In US9969732B2, “Tetrahydroisoquinoline estrogen receptor modulators and uses thereof” (Genentech, Inc., priority 2016, dated 2018):

Target: T1, ER-alpha (WT) (Homo sapiens, UniProt P03372)
T1 construct: endogenous in cells; host or cells: MCF7 breast cancer cells
T1 sequence (P03372 1-595): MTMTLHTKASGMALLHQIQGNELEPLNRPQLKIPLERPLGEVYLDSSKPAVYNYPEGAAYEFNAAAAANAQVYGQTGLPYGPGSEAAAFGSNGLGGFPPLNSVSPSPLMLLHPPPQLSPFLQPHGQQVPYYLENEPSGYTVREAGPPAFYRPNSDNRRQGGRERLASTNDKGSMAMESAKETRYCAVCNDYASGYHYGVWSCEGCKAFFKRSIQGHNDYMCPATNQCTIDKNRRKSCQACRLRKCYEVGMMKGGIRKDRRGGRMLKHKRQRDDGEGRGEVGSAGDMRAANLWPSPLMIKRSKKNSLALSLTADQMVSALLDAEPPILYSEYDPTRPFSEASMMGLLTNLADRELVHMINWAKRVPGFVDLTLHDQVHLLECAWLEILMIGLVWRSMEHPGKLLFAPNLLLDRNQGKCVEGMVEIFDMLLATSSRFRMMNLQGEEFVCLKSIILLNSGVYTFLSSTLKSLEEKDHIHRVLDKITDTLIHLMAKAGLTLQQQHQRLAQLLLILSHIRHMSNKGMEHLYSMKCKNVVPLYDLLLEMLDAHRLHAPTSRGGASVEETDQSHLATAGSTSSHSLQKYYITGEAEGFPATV
Assay: Breast Cancer Cell ERa High Content Fluorescence Imaging Degradation Assay (MCF7 HCS)
Format: cell-based
Conditions: MCF7 breast cancer cells, 4 hours incubation; for EC50: inflexion point of curve; for ERalpha (WT) MCF7 HCS (S inf): plateau of the maximal effect, DMSO and Fulvestrant define 0% and 100% changes in ESR1
Description: MCF7 breast cancer cells were seeded on day 1 at a density of 10,000 cells per well in 384 well poly-lysine coated tissue culture plate (Greiner #T-3101-4), in 50 μL/well RPMI (phenol red free), 10% FBS (Charcoal stripped), containing L-glutamine. […] Compounds and controls were dispensed using a Labcyte Echo acoustic dispenser to dispense compounds with a predefined serial dilution (1.8×, 10 point, in duplicate) and appropriate backfill and control compounds (final total volume transferred was 417.5 nL and compound dispense volume ranges from 2.5 nL to 417.5 nL; 0.84% DMSO (v/v) final), ultimately producing a concentration range from 0.05 nM to 835 nM. Cell plates were incubated at 37° C., for 4 hours. Fixation and permeabilization were carried out using a Biotek EL406 plate washer and dispenser as follows. Cells were fixed by addition of 15 μL of 16% paraformaldehyde (Electron Microscopy Sciences #15710-S) directly to the 50 μL cell culture medium in each well using the peristaltic pump 5 μL cassette on a Biotek EL406 (final concentration of formaldehyde was 3.7% w/v). Samples were incubated 30 minutes. Well contents was aspirated and 50 μL/well of Phosphate Buffered Saline (PBS) containing 0.5% w/v bovine serum albumen, 0.5% v/v Triton X-100 (Antibody Dilution Buffer) was added to each well. Samples were incubated for 30 minutes. Well contents were aspirated and washed 3 times with 100 μL/well of PBS. Immunofluorescence staining of estrogen receptor alpha (ESR1) was carried out using a Biotek EL406 plate washer and dispenser as follows. The well supernatant was aspirated from the wells and 25 μL/well of anti-ESR1 mAb (F10) (Santa Cruz sc-8002) diluted 1:1000 in Antibody Dilution Buffer was dispensed. Samples were incubated for 2 hours at room temperature. Samples were washed 4 times with 100 μL/well of PBS. 25 μL (microliters)/well of secondary antibody solution (Alexafluor® 488 conjugate anti-mouse IgG (LifeTechnologies #A21202) diluted 1:1000 and Hoechst 33342 1 μg/mL diluted in Antibody Dilution Buffer) were dispensed into each well. Samples were incubated for 2 hours at room temperature. Samples were washed 3 times with 100 μL/well of PBS using a Biotek EL406. Quantitative fluorescence imaging of ESR1 was carried out using a Cellomics Arrayscan V® (Thermo). Fluorescence images of the samples (Channel 1: XF53 Hoechst (DNA stain); Channel 2: XF53 FITC (ESR1 stain)) were acquired using a Cellomics VTI Arrayscan using the Bioapplication “Compartmental Analysis” using the auto-exposure (based on DMSO control wells) setting “peak target percentile” set to 25% target saturation for both channels. Channel 1 (DNA stain) was used to define the nuclear region (Circ). Measurements of “Mean_CircAvgIntCh2”, which is the Alexafluor 488 fluorescence intensity (ESR1) within the nuclear region, was measured on a per cell basis and averaged over all the measured cells. Data analysis was carried out using Genedata Screener Software, with DMSO and 5 nM Fulvestrant treated samples being used to define the 0% and 100% changes in ESR1. The “Robust Fit” method was used to define the inflexion point of curve (EC50) and the plateau of the maximal effect (Sinf).

Row | EC50 [nM] | ERalpha (WT) MCF7 HCS (S inf) [%] | SMILES
1 | 0.3 | −93 | C[C@@H]1Cc2cc(O)ccc2[C@@H](c2ccc(OCCN3CC(CF)C3)cc2)N1S(C)(=O)=O [Example 116, (1R,3R)-1-[4-[2-[3-(fluoromethyl)azetidin-1-yl]ethoxy]phenyl]-3-methyl-2-methylsulfonyl-3,4-dihydro-1H-isoquinolin-6-ol]
2 | ≥ 100 | – | C[C@H]1Cc2cc(O)ccc2[C@H](c2ccc(OCCN3CC(CF)C3)cc2)N1S(C)(=O)=O [Example 117, (1S,3S)-1-[4-[2-[3-(fluoromethyl)azetidin-1-yl]ethoxy]phenyl]-3-methyl-2-methylsulfonyl-3,4-dihydro-1H-isoquinolin-6-ol]
3 | 25.9 | −60 | C[C@@H]1CN(S(C)(=O)=O)[C@H](c2ccc(OCCN3CC(CF)C3)cc2)c2ccc(O)cc21 [Example 120, (1R,4S)-1-[4-[2-[3-(fluoromethyl)azetidin-1-yl]ethoxy]phenyl]-4-methyl-2-methylsulfonyl-3,4-dihydro-1H-isoquinolin-6-ol]
4 | 18.1 | −70 | C[C@H]1CN(S(C)(=O)=O)[C@H](c2ccc(OCCN3CC(CF)C3)cc2)c2ccc(O)cc21 [Example 121, (1R,4R)-1-[4-[2-[3-(fluoromethyl)azetidin-1-yl]ethoxy]phenyl]-4-methyl-2-methylsulfonyl-3,4-dihydro-1H-isoquinolin-6-ol]
5 | 25.2 | −62 | CC1Cc2c(ccc3c2cnn3CC(C)(C)F)C(c2c(F)cc(OCCN3CC(CF)C3)cc2F)N1CC(C)(C)F (stereo not drawn) [Example 122, 6-(2,6-difluoro-4-(2-(3-(fluoromethyl)azetidin-1-yl)ethoxy)phenyl)-3,7-bis(2-fluoro-2-methylpropyl)-8-methyl-6,7,8,9-tetrahydro-3H-pyrazolo[4,3-f]isoquinoline]
6 | 7.4 | −57 | C[C@@H]1CCN(CCOc2ccc([C@@]3(C)c4ccc(O)cc4CCN3CC(C)(C)F)cc2)C1 [Example 125, (S)-2-(2-fluoro-2-methylpropyl)-1-methyl-1-(4-(2-((R)-3-methylpyrrolidin-1-yl)ethoxy)phenyl)-1,2,3,4-tetrahydroisoquinolin-6-ol]
7 | 0.24 | −68 | C[C@@H]1CCN(CCOc2ccc([C@]3(C)c4ccc(O)cc4CCN3CC(C)(C)F)cc2)C1 [Example 126, (R)-2-(2-fluoro-2-methylpropyl)-1-methyl-1-(4-(2-((R)-3-methylpyrrolidin-1-yl)ethoxy)phenyl)-1,2,3,4-tetrahydroisoquinolin-6-ol]
8 | 2.7 | −101 | C[C@]1(c2ccc(OCCN3CC(CF)C3)cc2)c2ccc(O)cc2CCN1CC(F)(F)CO [Example 129, (S)-2-(2,2-difluoro-3-hydroxypropyl)-1-(4-(2-(3-(fluoromethyl)azetidin-1-yl)ethoxy)phenyl)-1-methyl-1,2,3,4-tetrahydroisoquinolin-6-ol]
9 | 0.042 | −101 | C[C@@]1(c2ccc(OCCN3CC(CF)C3)cc2)c2ccc(O)cc2CCN1CC(F)(F)CO [Example 130, (R)-2-(2,2-difluoro-3-hydroxypropyl)-1-(4-(2-(3-(fluoromethyl)azetidin-1-yl)ethoxy)phenyl)-1-methyl-1,2,3,4-tetrahydroisoquinolin-6-ol]
10 | 17 | −90 | Oc1ccc2c(c1)CCN(CC(F)(F)F)[C@H]2c1c(F)cc(OCCN2CC(CF)C2)cc1F [Example 133, (1R)-1-[2,6-difluoro-4-[2-[3-(fluoromethyl)azetidin-1-yl]ethoxy]phenyl]-2-(2,2,2-trifluoroethyl)-3,4-dihydro-1H-isoquinolin-6-ol]
11 | 0.013 | −98 | Oc1ccc2c(c1)CCN(CC(F)(F)F)[C@@H]2c1c(F)cc(OCCN2CC(CF)C2)cc1F [Example 134, (1S)-1-[2,6-difluoro-4-[2-[3-(fluoromethyl)azetidin-1-yl]ethoxy]phenyl]-2-(2,2,2-trifluoroethyl)-3,4-dihydro-1H-isoquinolin-6-ol]
12 | ≥ 100 | – | C[C@@H](CN1CCc2cc(O)ccc2[C@]1(C)c1ccc(OCCN2CC(CF)C2)cc1)C(=O)O [Example 135, (S)-3-((S)-1-(4-(2-(3-(fluoromethyl)azetidin-1-yl)ethoxy)phenyl)-6-hydroxy-1-methyl-3,4-dihydroisoquinolin-2(1H)-yl)-2-methylpropanoic acid]
13 | ≥ 100 | – | C[C@@H](CN1CCc2cc(O)ccc2[C@@]1(C)c1ccc(OCCN2CC(CF)C2)cc1)C(=O)O [Example 136, (S)-3-((R)-1-(4-(2-(3-(fluoromethyl)azetidin-1-yl)ethoxy)phenyl)-6-hydroxy-1-methyl-3,4-dihydroisoquinolin-2(1H)-yl)-2-methylpropanoic acid]
14 | 40 | −45 | C[C@H](CN1CCc2cc(O)ccc2[C@@]1(C)c1ccc(OCCN2CC(CF)C2)cc1)C(=O)O [Example 137, (R)-3-((R)-1-(4-(2-(3-(fluoromethyl)azetidin-1-yl)ethoxy)phenyl)-6-hydroxy-1-methyl-3,4-dihydroisoquinolin-2(1H)-yl)-2-methylpropanoic acid]
15 | ≥ 100 | – | C[C@H](CN1CCc2cc(O)ccc2[C@]1(C)c1ccc(OCCN2CC(CF)C2)cc1)C(=O)O [Example 138, (R)-3-((S)-1-(4-(2-(3-(fluoromethyl)azetidin-1-yl)ethoxy)phenyl)-6-hydroxy-1-methyl-3,4-dihydroisoquinolin-2(1H)-yl)-2-methylpropanoic acid]
16 | ≥ 100 | – | NC(=O)c1ccc2c(c1)CCN(CC(F)(F)F)[C@H]2c1ccc(OCCN2CC(CF)C2)cc1 [Example 141, (1S)-1-[4-[2-[3-(fluoromethyl)azetidin-1-yl]ethoxy]phenyl]-2-(2,2,2-trifluoroethyl)-3,4-dihydro-1H-isoquinoline-6-carboxamide]
17 | 29 | −79 | NC(=O)c1ccc2c(c1)CCN(CC(F)(F)F)[C@@H]2c1ccc(OCCN2CC(CF)C2)cc1 [Example 142, (1R)-1-[4-[2-[3-(fluoromethyl)azetidin-1-yl]ethoxy]phenyl]-2-(2,2,2-trifluoroethyl)-3,4-dihydro-1H-isoquinoline-6-carboxamide]
18 | ≥ 100 | −100 | FCC1CN(CCOc2ccc([C@H]3c4ccc(-c5cn[nH]c5)cc4CCN3CC(F)(F)F)cc2)C1 [Example 145, (1S)-1-[4-[2-[3-(fluoromethyl)azetidin-1-yl]ethoxy]phenyl]-6-(1H-pyrazol-4-yl)-2-(2,2,2-trifluoroethyl)-3,4-dihydro-1H-isoquinoline]
19 | 0.56 | −95 | FCC1CN(CCOc2ccc([C@@H]3c4ccc(-c5cn[nH]c5)cc4CCN3CC(F)(F)F)cc2)C1 [Example 146, (1R)-1-[4-[2-[3-(fluoromethyl)azetidin-1-yl]ethoxy]phenyl]-6-(1H-pyrazol-4-yl)-2-(2,2,2-trifluoroethyl)-3,4-dihydro-1H-isoquinoline]
